What was measured:
A549 cell line [1] = test: Annexin V/PI apoptosis detection by flow cytometry; type: cell-based, human; settings: 72 h
Method: Annexin V was applied to detect the phosphatidyl serin, which moved to outer membrane during apoptosis, and PI was used to distinguish live and dead cells.
After the incubation time, AnnexinV/PI staining using eBioscience™ Annexin V apoptosis detection kit (Invitrogen). The cells were gently harvested and washed once with 1X phosphate buffered saline (PBS), and once with 1000 μL 1X binding buffer. In the next step, the cells were suspended in 100 μL binding buffer containing 5 μL fluorescein isothiocyanate conjugated (FITC) Annexin V for 15 min and 5 μL Propodium Iodide (PI) solution. The cells were then acquired on BD FACS Calibur™ flow cytometry (BD Biosciences, San Jose, CA, USA) and apoptosis rates were calculated as the sum of early apoptosis and late apoptosis using Flowjo software.

A549 cell line [2] = test: Cell cycle analysis by PI flow cytometry; type: cell-based, human; settings: 72 h; for cell cycle S population: untreated cells 4.46%
Method: For this purpose, A549 cells were treated with two concentrations of 6n (10 and 15 μM) for 72 h (Fig. 6). […] A slight decrease in the G2/M population was also observed.
The effect of 6n was also assessed according to our previous protocol. Briefly, 1 × 10^5 A549 cells were seeded in a 24-well plate in […] complete cell culture media and after 24 h, were treated with two concentrations of 6n (10 and 15 μM). After 72 h, the cells were harvested and washed twice with cold 1X pbs and stabilized with cold ethanol (70%) in drop-wised manner while vortexing. After keeping one day in the freezer, the fixed cells were washed with 1X pbs and treated with a mixture of ribonuclease (10 µg/ml) (Sigma-Aldrich, Germany) to remove RNA, and Propidium Iodide (PI, 20 µg/ml) (Sigma-Aldrich, Germany) to stain DNA. The cells were acquired on BD FACS Calibur™ flow cytometry (BD Biosciences, San Jose, CA, USA). The data were analyzed with FlowJo software packages version 10.

| melting point [°C] | SMILES | other results |
| --- | --- | --- |
| 240 to 242 | Cn1c(=O)cc(Cl)n(Cc2nc3ccc(Br)cc3c(=O)n2-c2ccc(F)cc2)c1=O [Compound 6f., 1-((6-Bromo-3-(4-Fluorophenyl)-4-Oxo-3,4-Dihydroquinazolin-2-Yl)Methyl)-6-Chloro-3-Methylpyrimidine-2,4(1H,3H)-Dione] |  |
| 225 to 226 | Cn1c(=O)cc(Cl)n(Cc2nc3ccc(Br)cc3c(=O)n2-c2ccc(Cl)cc2)c1=O [Compound 6g, 1-((6-Bromo-3-(4-Chlorophenyl)-4-Oxo-3,4-Dihydroquinazolin-2-Yl)Methyl)-6-Chloro-3-Methylpyrimidine-2,4(1H,3H)-Dione] |  |

Second part, the molecule before the results:

| SMILES | melting point [°C] | other results |
| --- | --- | --- |
| Cn1c(=O)cc(Cl)n(Cc2nc3ccc(Br)cc3c(=O)n2-c2ccccc2)c1=O [Compound 6a, 1-((6-Bromo-4-Oxo-3-Phenyl-3,4-Dihydroquinazolin-2-Yl)Methyl)-6-Chloro-3-Methylpyrimidine-2,4(1H,3H)-Dione] | 246 to 248 |  |
| Cn1c(=O)cc(Cl)n(Cc2nc3ccc(Br)cc3c(=O)n2-c2cccc(C#N)c2)c1=O [Compound 6b, 3-(6-Bromo-2-((6-Chloro-3-Methyl-2,4-Dioxo-3,4-Dihydropyrimidin-1(2H)-Yl)Methyl)-4-Oxoquinazolin-3(4H)-Yl) Benzonitrile] | 255 to 257 |  |
| Cn1c(=O)cc(Cl)n(Cc2nc3ccc(Br)cc3c(=O)n2-c2cccc(F)c2)c1=O [Compound 6c, 1-((6-Bromo-3-(3-Fluorophenyl)-4-Oxo-3,4-Dihydroquinazolin-2-Yl)Methyl)-6-Chloro-3-Methylpyrimidine-2,4(1H,3H)-Dione] | 243 to 244 |  |
| Cn1c(=O)cc(Cl)n(Cc2nc3ccc(Br)cc3c(=O)n2-c2cccc(Cl)c2)c1=O [Compound 6d, 1-((6-Bromo-3-(3-Chlorophenyl)-4-Oxo-3,4-Dihydroquinazolin-2-Yl)Methyl)-6-Chloro-3-Methylpyrimidine-2,4(1H,3H)-Dione] | 259 to 260 |  |
| Cn1c(=O)cc(Cl)n(Cc2nc3ccc(Br)cc3c(=O)n2-c2cccc(Br)c2)c1=O [Compound 6e, 1-((6-Bromo-3-(3-Bromophenyl)-4-Oxo-3,4-Dihydroquinazolin-2-Yl)Methyl)-6-Chloro-3-Methylpyrimidine-2,4(1H,3H)-Dione] | 251 to 252 |  |
| Cn1c(=O)cc(Cl)n(Cc2nc3ccc(Br)cc3c(=O)n2-c2ccc(F)c(Cl)c2)c1=O [Compound 6n, 1-((6-Bromo-3-(3-Chloro-4-Fluorophenyl)-4-Oxo-3,4-Dihydroquinazolin-2-Yl)Methyl)-6-Chloro-3-Methylpyrimidine-2,4(1H,3H)-Dione] |  | early apoptotic cells Q3 (Av pos/PI neg) (A549 cell line [1]; 5 µM): 2.61%; late apoptotic cells Q2 (Av pos/PI pos) (A549 cell line [1]; 5 µM): 21.2%; apoptotic death (sum of early and late apoptosis) (A549 cell line [1]; 15 µM): 65.08%; induction of apoptosis (in words) (A549 cell line [1]; 5, 10, 15 µM): significantly induced apoptotic death in the dose dependent manner; cell cycle S population (A549 cell line [2]; 10 μM): 8.91%; cell cycle S population (A549 cell line [2]; 15 μM): 11.6%; effect on cell cycle (in words) (A549 cell line [2]; 10 and 15 μM): could induce arrest at S-phase |

Source: paper PMC10475017, “Design, synthesis, computational study and cytotoxic evaluation of some new quinazoline derivatives containing pyrimidine moiety” (Scientific Reports, 2023)
